From the RepoRT retention time repository

Experiment: RP, Waters ACQUITY UPLC BEH C8, 100 × 2.1 mm, 1.7 µm, 55 °C, 0.6 mL/min, estimated dead time 0.37 min; A: 50% water + 25% acetonitrile + 25% isopropanol + 0.05% acetic acid + 20 µM phosphoric acid + 5 mM ammonium acetate; B: 50% acetonitrile + 50% isopropanol + 0.05% acetic acid + 5 mM ammonium acetate; gradient (min/%B) 0/1 0.1/1 2/30 11.5/90 12/99.9 12.5/99.9 12.55/65 12.65/30 12.75/1 12.95/1 13.25/1
Details: stereoisomer not certain

SMILES | LC retention time
CC1=CCCC(C)(C)C1/C=C/C(C)=C/C=C/C(C)=C/C=C/C=C(C)/C=C/C=C(C)/C=C/C1=C(C)CCCC1(C)C (stereo not drawn) [Alpha-carotene] | 8.56 min
C=C1C=CCC(C)(C)C1C=CC(C)=CC=CC(C)=CC=CC=C(C)C=CC=C(C)C=CC1=C(C)CC(O)CC1(C)C (configuration not stated) [Anhydrolutein I] | 5.77 min
CCCCCCCCCCCCCCCCCCCC(=O)OC(CC(=O)[O-])C[N+](C)(C)C (configuration not stated) [Arachidyl carnitine CAR(20:0)] | 2.88 min
CC1=C(/C=C/C(C)=C/C=C/C(C)=C/C=C/C=C(C)/C=C/C=C(C)/C=C/C2=C(C)CCCC2(C)C)C(C)(C)CCC1 [Beta-carotene] | 8.56 min
CC(C=CC=C(C)C=CC1=C(C)CCCC1(C)C)=CC=CC=C(C)C=CC=C(C)C=CC1=C(C)CC(O)CC1(C)C (stereo not drawn) [Beta-cryptoxanthin] | 6.41 min
CCCCCCCCCCCC=CC(O)C(CO)NC(=O)CCCCCCCCCCCCCCCCCCC (configuration not stated) [Cer(d16:1/20:0)] | 7.27 min
CCCCCCCCCCCC=CC(O)C(CO)NC(=O)CCCCCCCCCCCCCCCCCCCCC (configuration not stated) [Cer(d16:1/22:0)] | 7.93 min
CCCCCCCCCCCC=CC(O)C(CO)NC(=O)CCCCCCCCCCCCCCCCCCCCCCC (configuration not stated) [Cer(d16:1/24:0)] | 8.54 min
CCCCCCCCCCCCCCCCCCCCCC(=O)NC(CO)C(O)CCCCCCCCCCCCCCC (configuration not stated) [Cer(d18:0/22:0)] | 8.61 min
CCCCCCCCCCCCCCCCCCCCCCCC(=O)NC(CO)C(O)CCCCCCCCCCCCCCC (configuration not stated) [Cer(d18:0/24:0)] | 9.14 min
CCCCCCCCCCCCCC=CC(O)C(CO)NC(=O)CCCCCCCCCCCCCCC (configuration not stated) [Cer(d18:1/16:0)] | 6.5 min
CCCCCCCCCCCCCC=CC(O)C(CO)NC(=O)CCCCCCCCCCCCCCCCC (configuration not stated) [Cer(d18:1/18:0)] | 7.19 min
CCCCCCCCCCCCCC=CC(O)C(CO)NC(=O)CCCCCCCCCCCCCCCCCCC (configuration not stated) [Cer(d18:1/20:0)] | 7.86 min
CCCCCCCCCCCCCC=CC(O)C(CO)NC(=O)CCCCCCCCCCCCCCCCCCCCC (configuration not stated) [Cer(d18:1/22:0)] | 8.46 min
CCCCCCCCCCCCCC=CC(O)C(CO)NC(=O)CCCCCCCCCCCCCCCCCCCCCCC (configuration not stated) [Cer(d18:1/24:0)] | 9 min
CCCCCCCCCCCCCC=CC(O)C(CO)NC(=O)CCCCCCCCCCCCCCCCCCCCCCCC (configuration not stated) [Cer(d18:1/25:0)] | 9.26 min
CC(C)CCCC(C)C1CCC2C3CC=C4CC(O)CCC4(C)C3CCC12C (configuration not stated) [Cholesterol] | 4.54 min
CCCCCCCCCCCCCCCC(=O)OCC(CO)OC(=O)CCCCCCCCCCCCCCC (configuration not stated) [DG(16:0/16:0)] | 7.6 min
CCCCCCCCCCCCCCCCCC(=O)OCC(CO)OC(=O)CCCCCCCCCCCCCCC (configuration not stated) [DG(18:0/16:0)] | 8.19 min
CCCCCCCCCC(=O)OC(CC(=O)[O-])C[N+](C)(C)C (configuration not stated) [Decanoylcarnitine CAR(10:0)] | 0.609 min
Cc1cc(O)cc2c1OC(C)(CCCC(C)CCCC(C)CCCC(C)C)CC2 (configuration not stated) [Delta-Tocopherol] | 5.02 min
CC(C)=CCCC(C)=CC=CC(C)=CC=CC(C)=CC=CC=C(C)C=CC=C(C)C=CC1=C(C)CCCC1(C)C [Gamma-carotene] | 8.22 min
CCCCCCCCCCCCCCCCCCCCCCCCCC(=O)OC(CC(=O)[O-])C[N+](C)(C)C (configuration not stated) [Hexacosanoylcarnitine CAR(26:0)] | 5.15 min
CCCCCCCCCCCCCCCC(=O)OCC(O)COP(=O)(O)O (configuration not stated) [LPA(16:0/0:0)] | 1.58 min
CCCCCCCCCCCCCC(=O)OC(CO)COP(=O)([O-])OCC[N+](C)(C)C (configuration not stated) [LPC(0:0/14:0)] | 1.27 min
CCCCCCCCCCCCCCCC(=O)OC(CO)COP(=O)([O-])OCC[N+](C)(C)C (configuration not stated) [LPC(0:0/16:0)] | 1.75 min

SMILES | LC retention time
CCCCCCCCCCCCCCCCCC(=O)OC(CO)COP(=O)([O-])OCC[N+](C)(C)C (configuration not stated) [LPC(0:0/18:0)] | 2.3 min
CCCCCCCCCCCCCC(=O)OCC(O)COP(=O)([O-])OCC[N+](C)(C)C (configuration not stated) [LPC(14:0/0:0)] | 1.36 min
CCCCCCCCCCCCCCC(=O)OCC(O)COP(=O)([O-])OCC[N+](C)(C)C (configuration not stated) [LPC(15:0/0:0)] | 1.61 min
CCCCCCCCCCCCCCCC(=O)OCC(O)COP(=O)([O-])OCC[N+](C)(C)C (configuration not stated) [LPC(16:0/0:0)] | 1.87 min
CCCCCCCCCCCCCCCCC(=O)OCC(O)COP(=O)([O-])OCC[N+](C)(C)C (configuration not stated) [LPC(17:0/0:0)] | 2.14 min
CCCCCCCCCCCCCCCCCC(=O)OCC(O)COP(=O)([O-])OCC[N+](C)(C)C (configuration not stated) [LPC(18:0/0:0)] | 2.42 min
CCCCCCCCCCCCCCCCCCC(=O)OCC(O)COP(=O)([O-])OCC[N+](C)(C)C (configuration not stated) [LPC(19:0/0:0)] | 2.7 min
CCCCCCCCCCCCCCCCCCCC(=O)OCC(O)COP(=O)([O-])OCC[N+](C)(C)C (configuration not stated) [LPC(20:0/0:0)] | 3.02 min
CCCCCCCCCCCCCCCCCCCCCC(=O)OCC(O)COP(=O)([O-])OCC[N+](C)(C)C (configuration not stated) [LPC(22:0/0:0)] | 3.73 min
CCCCCCCCCCCCCCCCCCCCCCCC(=O)OCC(O)COP(=O)([O-])OCC[N+](C)(C)C (configuration not stated) [LPC(24:0/0:0)] | 4.52 min
CCCCCCCCCCCCCCCCOCC(O)COP(=O)([O-])OCC[N+](C)(C)C (configuration not stated) [LPC(O-16:0/0:0)] | 2.09 min
CCCCCCCCCCCCCCCCCCOCC(O)COP(=O)([O-])OCC[N+](C)(C)C (configuration not stated) [LPC(O-18:0/0:0)] | 2.66 min
CCCCCCCCCCCCCCCCCCCCOCC(O)COP(=O)([O-])OCC[N+](C)(C)C (configuration not stated) [LPC(O-20:0/0:0)] | 3.31 min
CCCCCCCCCCCCCCC=COCC(O)COP(=O)([O-])OCC[N+](C)(C)C (configuration not stated) [LPC(P-16:0/0:0)] | 2.09 min
CCCCCCCCCCCCCCCCC=COCC(O)COP(=O)([O-])OCC[N+](C)(C)C (configuration not stated) [LPC(P-18:0/0:0)] | 2.65 min
CCCCCCCCCCCCCCCCCC(=O)OC(CO)COP(=O)(O)OCCN (configuration not stated) [LPE(0:0/18:0)] | 2.38 min
CCCCCCCCCCCCCCCC(=O)OCC(O)COP(=O)(O)OCCN (configuration not stated) [LPE(16:0/0:0)] | 1.93 min
CCCCCCCCCCCCCCCCCC(=O)OCC(O)COP(=O)(O)OCCN (configuration not stated) [LPE(18:0/0:0)] | 2.48 min
CCCCCCCCCCCCCCCCC=COCC(O)COP(=O)(O)OCCN (configuration not stated) [LPE(P-18:0/0:0)] | 2.75 min
CCCCCCCCCCCCCC=CC(O)C(COC1OC(CO)C(OC2OC(CO)C(O)C(O)C2O)C(O)C1O)NC(=O)CCCCCCCCCCCCCCC (configuration not stated) [LacCer(d18:1/16:0)] | 5.75 min
CCCCCCCCCCCCCC=CC(O)C(COC1OC(CO)C(OC2OC(CO)C(O)C(O)C2O)C(O)C1O)NC(=O)CCCCCCCCCCCCCCCCCCCCC (configuration not stated) [LacCer(d18:1/22:0)] | 7.86 min
CCCCCCCCCCCCCC=CC(O)C(COC1OC(CO)C(OC2OC(CO)C(O)C(O)C2O)C(O)C1O)NC(=O)CCCCCCCCCCCCCCCCCCCCCCC (configuration not stated) [LacCer(d18:1/24:0)] | 8.4 min
CCCCCCCCCCCC(=O)OC(CC(=O)[O-])C[N+](C)(C)C (configuration not stated) [Lauroylcarnitine CAR(12:0)] | 0.876 min
CC(C=CC=C(C)C=CC1=C(C)CC(O)CC1(C)C)=CC=CC=C(C)C=CC=C(C)C=CC1C(C)=CC(O)CC1(C)C (configuration not stated) [Luteine] | 3.74 min
CCCCCCCC(=O)OC(CC(=O)O)C[N+](C)(C)C (configuration not stated) [Octanoylcarnitine CAR(8:0)] | 0.462 min
CCCCCCCCCCCCCCCC(=O)OCC(COP(=O)([O-])OCC[N+](C)(C)C)OC(=O)CCCCCCCCCCCCCC (configuration not stated) [PC(16:0/15:0)] | 5.97 min
